What was measured:
[1] = test system: Liver microsome; assay: Drug metabolism in rat liver microsomes assessed as 1-(4-(4-fluoro-2-methyl-1H-indol-5-yloxy)-5-methylpyrrolo[1,2-f][1,2,4]triazin-6-yloxy)propan-2-one formation at 2 uM after 60 mins by LC/MS method in presence of 1 mM NADPH; type: ADME
[2] = Drug metabolism in monkey liver microsomes assessed as 1-(4-(4-fluoro-2-methyl-1H-indol-5-yloxy)-5-methylpyrrolo[1,2-f][1,2,4]triazin-6-yloxy)propan-2-one formation at 2 uM after 60 mins by LC/MS method in presence of 1 mM NADPH; type: ADME, Macaca mulatta; conditions: rhesus monkey
[3] = test system: Liver microsome; assay: Drug metabolism in human liver microsomes assessed as 1-(4-(4-fluoro-2-methyl-1H-indol-5-yloxy)-5-methylpyrrolo[1,2-f][1,2,4]triazin-6-yloxy)propan-2-one formation at 2 uM after 60 mins by LC/MS method in presence of 1 mM NADPH; type: ADME
[4] = test system: Liver microsome; assay: Drug metabolism in rat liver microsomes assessed as 1-(4-(4-fluoro-2-methyl-1H-indol-5-yloxy)-5-methylpyrrolo[1,2-f][1,2,4]triazin-6-yloxy)propan-2-one formation at 2 uM after 60 mins by LC/MS method in absence of NADPH; type: ADME
[5] = Drug metabolism in monkey liver microsomes assessed as 1-(4-(4-fluoro-2-methyl-1H-indol-5-yloxy)-5-methylpyrrolo[1,2-f][1,2,4]triazin-6-yloxy)propan-2-one formation at 2 uM after 60 mins by LC/MS method in absence of NADPH; type: ADME, Macaca mulatta; conditions: rhesus monkey
[6] = test system: Liver microsome; assay: Drug metabolism in human liver microsomes assessed as 1-(4-(4-fluoro-2-methyl-1H-indol-5-yloxy)-5-methylpyrrolo[1,2-f][1,2,4]triazin-6-yloxy)propan-2-one formation at 2 uM after 60 mins by LC/MS method in absence of NADPH; type: ADME
[7] = test system: Liver microsome; assay: Drug level in rat liver microsomes assessed as compound formation treated with 2 uM [14C]brivanib alaninate after 60 mins by LC/MS method in presence of 1 mM NADPH; type: ADME; conditions: 1 h
[8] = Drug level in monkey liver microsomes assessed as compound formation treated with 2 uM [14C]brivanib alaninate after 60 mins by LC/MS method in presence of 1 mM NADPH; type: ADME, Macaca mulatta; conditions: rhesus monkey, 1 h
[9] = test system: Liver microsome; assay: Drug level in human liver microsomes assessed as compound formation treated with 2 uM [14C]brivanib alaninate after 60 mins by LC/MS method in presence of 1 mM NADPH; type: ADME; conditions: 1 h
[10] = Drug metabolism in monkey liver microsomes assessed as (R)-1-(4-(4-fluoro-2-methyl-1H-indol-5-yloxy)-5-methylpyrrolo[1,2-f][1,2,4]triazin-6-yloxy)propan-2-ol formation at 10 uM after 60 mins by LC/MS analysis in absence of NADPH; type: ADME, Macaca mulatta; conditions: rhesus monkey
[11] = test system: Liver microsome; assay: Drug metabolism in human liver microsomes assessed as (R)-1-(4-(4-fluoro-2-methyl-1H-indol-5-yloxy)-5-methylpyrrolo[1,2-f][1,2,4]triazin-6-yloxy)propan-2-ol formation at 10 uM after 60 mins by LC/MS analysis in absence of NADPH; type: ADME
[12] = test system: Liver microsome; assay: Drug metabolism in rat liver microsomes assessed as (R)-1-(4-(4-fluoro-2-methyl-1H-indol-5-yloxy)-5-methylpyrrolo[1,2-f][1,2,4]triazin-6-yloxy)propan-2-ol formation at 10 uM after 60 mins by LC/MS analysis in absence of NADPH; type: ADME
[13] = test system: Liver cytosol; assay: Drug metabolism in human liver cytosol assessed as sulfate metabolite formation by Michaelis-Menten equation […]; type: ADME
[14] = test system: HUVEC; assay: Inhibition of VEGF-stimulated HUVEC cell proliferation assessed as 5-bromo-2-deoxyuridine incorporation; type: functional, cell-based; conditions: Homo sapiens
[15] = test system: HUVEC; assay: Inhibition of FGF-stimulated HUVEC cell proliferation assessed as 5-bromo-2-deoxyuridine incorporation; type: functional, cell-based; conditions: Homo sapiens
[16] = test system: HUVEC; assay: Inhibition of VEGF/FGF-stimulated HUVEC cell proliferation assessed as 5-bromo-2-deoxyuridine incorporation; type: functional, cell-based; conditions: Homo sapiens
[17] = test system: Liver cytosol; assay: Drug metabolism in rat liver cytosol assessed as sulfate metabolite formation by Michaelis-Menten equation […]; type: ADME
[18] = Drug metabolism in monkey liver cytosol assessed as sulfate metabolite formation by Michaelis-Menten equation […]; type: ADME, Macaca mulatta; conditions: rhesus monkey
[19] = Cmax in Sprague-Dawley rat plasma at 60 mg/kg, po administered as single dose via gavage by LC/MS analysis; type: ADME, organism-based; design: dose 60 mg/kg, route oral
[20] = Tmax in Sprague-Dawley rat plasma at 60 mg/kg, po administered as single dose via gavage by LC/MS analysis; type: ADME, organism-based; design: dose 60 mg/kg, route oral
[21] = AUC (0 to t) in Sprague-Dawley rat plasma at 60 mg/kg, po administered as single dose via gavage by LC/MS analysis; type: ADME, organism-based; design: dose 60 mg/kg, route oral
[22] = Cmax in cynomolgus monkey plasma at 10 mg/kg, po administered as single dose via gavage by LC/MS analysis; type: ADME, organism-based, Macaca fascicularis; design: dose 10 mg/kg, route oral
[23] = Tmax in cynomolgus monkey plasma at 10 mg/kg, po administered as single dose via gavage by LC/MS analysis; type: ADME, organism-based, Macaca fascicularis; design: dose 10 mg/kg, route oral
[24] = AUC (0 to t) in cynomolgus monkey plasma at 10 mg/kg, po administered as single dose via gavage by LC/MS analysis; type: ADME, organism-based, Macaca fascicularis; design: dose 10 mg/kg, route oral
[25] = Cmax in healthy human plasma at 400 mg, po administered as single dose via gavage by LC/MS analysis; type: ADME, organism-based; design: dose 400 mg, route oral
[26] = Tmax in healthy human plasma at 400 mg, po administered as single dose via gavage by LC/MS analysis; type: ADME, organism-based
[27] = AUC (0 to t) in healthy human plasma at 400 mg, po administered as single dose via gavage by LC/MS analysis; type: ADME, organism-based

Structure (SMILES): Cc1cc2c(F)c(Oc3n[14cH]nn4cc(OC[C@@H](C)OC(=O)[C@H](C)N)c(C)c34)ccc2[nH]1
- Drug metabolism [1]: metabolite_detected
- Drug metabolism [2]: metabolite_detected
- Drug metabolism [3]: metabolite_detected
- Drug metabolism [4]: metabolite_not_detected
- Drug metabolism [5]: metabolite_not_detected
- Drug metabolism [6]: metabolite_not_detected

Structure (SMILES): Cc1c(OC[C@@H](C)O)cn2ncnc(Oc3ccc4[nH]c(CO)cc4c3F)c12
- Drug metabolism [7]: metabolite_detected
- Drug metabolism [8]: metabolite_detected
- Drug metabolism [9]: metabolite_detected

Structure (SMILES): Cc1c(OC[C@@H](C)O)cn2ncnc(Oc3ccc4[nH]c(C(=O)O)cc4c3F)c12
- Drug metabolism [7]: metabolite_detected
- Drug metabolism [8]: metabolite_detected
- Drug metabolism [9]: metabolite_detected

Structure (SMILES): Cc1cc2c(F)c(Oc3ncnn4cc(OC[C@H](C)O)c(C)c34)ccc2[nH]1
- Drug metabolism [10]: metabolite_not_detected
- Drug metabolism [11]: metabolite_not_detected
- Drug metabolism [12]: metabolite_not_detected
- Km [13]: 0.7 µM
- IC50 [14]: 687 nM
- IC50 [15]: 1010 nM
- IC50 [16]: 807 nM
- Km [17]: 0.7 µM
- Km [18]: 0.7 µM

Structure (SMILES): CC(=O)COc1cn2ncnc(Oc3ccc4[nH]c(C)cc4c3F)c2c1C
- Drug metabolism [7]: metabolite_detected
- Drug metabolism [8]: metabolite_detected
- Drug metabolism [9]: metabolite_detected

Structure (SMILES): Cc1cc2c(F)c(Oc3ncnn4cc(OC[C@@H](C)O)c(C)c34)ccc2[nH]1 [BRIVANIB]
- Cmax [19]: 3500 ng/mL
- Tmax [20]: 1 h
- AUC(0-t) [21]: 7600 ng·h/mL
- Cmax [22]: 1400 ng/mL
- Tmax [23]: 1 h
- AUC(0-t) [24]: 6800 ng·h/mL
- Cmax [25]: 3500 ng/mL
- Tmax [26]: 2 h
- AUC(0-t) [27]: 21800 ng·h/mL
- Km [13]: 0.7 µM
- IC50 [14]: 618 nM
- IC50 [15]: 695 nM
- IC50 [16]: 841 nM
- Km [17]: 0.7 µM
- Km [18]: 0.7 µM

— ChEMBL document CHEMBL3525936 (Drug Metab Dispos, 2012)
